# Experimental data from patent publication US20090131493A1, “SUBSTITUTED BENZIMIDAZOLES FOR TREATMENT OF HISTOMONIASIS” (BAYER HEALTHCARE AG, priority 2005, published 2009).
# Tests used:
# [1] = test system: histomonas; conditions: cited from earlier work
# [2] = test system: Heterakis gallinarum; conditions: treatment for 14 days after the time of infection; directed against Heterakis gallinarum, not H. meleagridis; cited from earlier work
# [3] = test system: Histomonas meleagridis; test: Test 1: cage trial, turkey chicks intracloacally infected with Histomonas meleagridis, weight gain; assay type: in vivo; conditions: 1 day before to 13 days after infection, uninfected/untreated group 4 set at 100%
# From the text: (§1) Young, susceptible turkey cock chicks were kept in cages and underwent intracloacal infection in a conventional way at an age of 2 weeks with about 5 log 10 infectious Histomonas meleagridis microorganisms. With the test groups which had been treated with the test compounds, two control groups were kept for comparison purposes (infected/untreated and uninfected/untreated). The test groups consisted of 6 to 10 turkeys. The test compounds, either the compound of the formula (I-1) or (I-2), were administered to the treated test groups 1 day before the infection and 13 days thereafter, with the feed. At the end of the trial, the animals were sacrificed and examined for lesions typical of histomoniasis (“blackhead disease”).
# [4] = test system: Histomonas meleagridis; test: Test 2: cage trial, turkey chicks intracloacally infected with Histomonas meleagridis, liver and caecum lesions; assay type: in vivo; conditions: for Caecum lesions / Liver lesions: scale 0 (no lesions) to 4 (most severe lesions)
# From the text: as §1
# [5] = turkey cock; cited from earlier work
smiles,measurement,setting,value
CCCSc1ccc2nc(NC(=O)OC)[nH]c2c1 [albendazole],activity on histomonas in vitro,[1],inadequate activity
same,activity in vivo,[2],prophylactic activity
CCN(Cn1c(C(F)(F)F)nc2c(Br)cc3c(c21)OC(F)(F)C(F)(F)O3)C(=O)OC [compound (I-1)],Weight gain,[3]; 5 ppm in the feed,61%
same,Caecum lesions,[4]; 5 ppm in the feed,3.5
same,Liver lesions,[4]; 5 ppm in the feed,0.8
same,Caecum lesions,[4]; 15 ppm in the feed,3
same,Liver lesions,[4]; 15 ppm in the feed,0
Cc1oc(=O)oc1Cn1c(C(F)(F)F)nc2c(Cl)cc3c(c21)OC(F)(F)C(F)(F)O3 [compound (I-2)],Weight gain,[3]; 10 ppm in the feed,35%
same,Caecum lesions,[4]; 10 ppm in the feed,2.1
same,Liver lesions,[4]; 10 ppm in the feed,0
same,Caecum lesions,[4]; 30 ppm in the feed,0.8
same,Liver lesions,[4]; 30 ppm in the feed,0
same,effect on caecum lesions (in words),"[4]; Test 2, summary in text",reduced the caecum lesions
COC(=O)Nc1nc2ccc(Sc3ccccc3)cc2[nH]1 [fenbendazole],activity on histomonas in vitro,[1],inadequate activity
same,activity in vivo,[2],prophylactic activity
O=[N+]([O-])c1cc([As](=O)(O)O)ccc1O [roxarsone],effect of doubling the dosage,[5],impaired motor functions
